Laboratory results reported in patent US10479780B2, “Aminopyrazole derivatives” (Chugai Seiyaku Kabushiki Kaisha, priority 2015, dated 2019).

How the values were obtained:
Assay type in all cases: biochemical
[1] = target: T1, human Yes1 enzyme (Homo sapiens, UniProt P07947); assay: Yes1 enzyme inhibitory activity (time-resolved fluorometry, biotinylated peptide phosphorylation); details: biotinylated peptide phosphorylation, read-out: YES_IC50
T1 construct: made in house
Outline: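 Inhibition was expressed against a compound-free control to give IC50, using TR-FRET read-out (Eu-cryptate anti-pTyr antibody, streptavidin-XL665).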

[2] = target: T2, human Src enzyme (Homo sapiens, UniProt P12931); assay: Src enzyme inhibitory activity (time-resolved fluorometry, biotinylated peptide phosphorylation); details: biotinylated peptide phosphorylation, read-out: SRC_IC50
T2 construct: purchased Carna Biosciences, Inc. 08-173
T2 sequence (P12931 whole entry): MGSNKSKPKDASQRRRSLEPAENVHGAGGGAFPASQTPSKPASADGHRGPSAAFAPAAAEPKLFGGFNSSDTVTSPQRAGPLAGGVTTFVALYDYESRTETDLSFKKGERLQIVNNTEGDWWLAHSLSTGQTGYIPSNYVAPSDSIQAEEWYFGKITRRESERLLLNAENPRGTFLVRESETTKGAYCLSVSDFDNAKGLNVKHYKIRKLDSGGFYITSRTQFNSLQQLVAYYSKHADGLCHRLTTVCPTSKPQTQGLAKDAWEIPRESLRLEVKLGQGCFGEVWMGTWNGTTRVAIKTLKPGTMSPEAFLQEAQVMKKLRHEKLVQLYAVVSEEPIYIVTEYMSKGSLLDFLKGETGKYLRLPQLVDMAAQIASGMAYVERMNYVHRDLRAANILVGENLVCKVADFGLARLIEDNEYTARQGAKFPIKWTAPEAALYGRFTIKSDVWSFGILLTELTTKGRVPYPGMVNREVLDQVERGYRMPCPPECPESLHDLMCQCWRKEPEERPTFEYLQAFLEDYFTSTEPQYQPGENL
Outline: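 Compounds were tested for blocking tyrosine phosphorylation of a biotinylated peptide substrate by recombinant human Src. Phosphorylated product was quantified by time-resolved fluorometry using europium cryptate and XL665 conjugates, and IC50 was calculated against the compound-free control.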

[3] = target: T3, human Lck enzyme (Homo sapiens, UniProt P06239); assay: Lck enzyme inhibitory activity (time-resolved fluorometry, biotinylated peptide phosphorylation); details: biotinylated peptide phosphorylation, read-out: LCK_IC50
T3 construct: purchased Carna Biosciences, Inc. 08-170
T3 sequence (P06239 whole entry): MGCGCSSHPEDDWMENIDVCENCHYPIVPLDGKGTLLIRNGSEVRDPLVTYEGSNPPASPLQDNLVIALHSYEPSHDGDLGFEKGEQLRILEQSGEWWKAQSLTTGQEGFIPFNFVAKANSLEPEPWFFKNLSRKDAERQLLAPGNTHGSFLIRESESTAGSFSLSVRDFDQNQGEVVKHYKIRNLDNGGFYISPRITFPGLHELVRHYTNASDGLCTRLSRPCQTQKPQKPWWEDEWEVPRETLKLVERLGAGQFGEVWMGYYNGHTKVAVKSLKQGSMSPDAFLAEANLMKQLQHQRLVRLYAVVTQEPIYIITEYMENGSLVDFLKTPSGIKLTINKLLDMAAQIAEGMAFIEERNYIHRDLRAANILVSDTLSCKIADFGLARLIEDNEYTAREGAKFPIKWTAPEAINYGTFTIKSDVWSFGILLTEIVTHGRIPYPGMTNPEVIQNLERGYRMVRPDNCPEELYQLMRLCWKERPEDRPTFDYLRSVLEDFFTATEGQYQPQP
Outline: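 Readout pairs a europium cryptate-labelled anti-phosphotyrosine antibody with XL665-streptavidin, measured by time-resolved fluorescence. IC50 derived from percent inhibition against untreated controls.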

T1 sequence (P07947 whole entry): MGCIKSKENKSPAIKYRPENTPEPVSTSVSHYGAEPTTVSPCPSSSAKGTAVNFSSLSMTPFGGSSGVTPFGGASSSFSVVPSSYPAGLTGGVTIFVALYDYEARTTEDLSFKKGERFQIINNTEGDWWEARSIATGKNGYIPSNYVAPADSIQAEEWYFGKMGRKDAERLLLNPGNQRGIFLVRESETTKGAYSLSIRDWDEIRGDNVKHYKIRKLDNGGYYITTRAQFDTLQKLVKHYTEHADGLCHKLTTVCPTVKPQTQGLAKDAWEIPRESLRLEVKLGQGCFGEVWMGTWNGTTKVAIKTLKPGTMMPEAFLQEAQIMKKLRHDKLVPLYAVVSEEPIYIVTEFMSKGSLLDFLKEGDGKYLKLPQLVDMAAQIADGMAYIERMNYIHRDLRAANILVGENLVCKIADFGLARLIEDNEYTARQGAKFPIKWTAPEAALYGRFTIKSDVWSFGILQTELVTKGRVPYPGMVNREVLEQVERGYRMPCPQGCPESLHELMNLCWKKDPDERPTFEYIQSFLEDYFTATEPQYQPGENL

IC50 [1] [nM] | IC50 [2] [nM] | IC50 [3] [nM] | SMILES
1.2 | 71 | 10 | Cc1cc(Oc2c(F)cccc2F)ncc1-n1ncc(C(=O)c2cc3cc(OC(F)F)c(N4C(=O)C(C)(C)NC4=S)cc3[nH]2)c1N [Example 4-23-038, 3-[2-[5-amino-1-[6-(2,6-difluorophenoxy)-4-methylpyridin-3-yl]pyrazole-4-carbonyl]-5-(difluoromethoxy)-1H-indol-6-yl]-5,5-dimethyl-2-sulfanylideneimidazolidin-4-one]
0.81 | 60 | 16 | Cc1cc(Oc2ccccc2F)ccc1-n1ncc(C(=O)c2cc3cc(OC(F)F)c(N4C(=O)C(C)(C)NC4=S)cc3[nH]2)c1N [Example 4-23-039, 3-[2-[5-amino-1-[4-(2-fluorophenoxy)-2-methylphenyl]pyrazole-4-carbonyl]-5-(difluoromethoxy)-1H-indol-6-yl]-5,5-dimethyl-2-sulfanylideneimidazolidin-4-one]
3.6 | 110 | 36 | Cc1cc(Oc2ccccc2F)ccc1-n1ncc(C(=O)c2cc3cc(OC(F)F)c(NS(=O)(=O)C4CC4)cc3[nH]2)c1N [Example 4-24-001, N-[2-[5-amino-1-[4-(2-fluorophenoxy)-2-methylphenyl]pyrazole-4-carbonyl]-5-(difluoromethoxy)-1H-indol-6-yl]cyclopropanesulfonamide]
1.6 | 35 | 10 | Cc1cc(Oc2ccccc2F)ccc1-n1ncc(C(=O)c2cc3cc(OC(F)F)c(NS(C)(=O)=O)cc3[nH]2)c1N [Example 4-24-002, N-[2-[5-amino-1-[4-(2-fluorophenoxy)-2-methylphenyl]pyrazole-4-carbonyl]-5-(difluoromethoxy)-1H-indol-6-yl]methanesulfonamide]
2.7 | 55 | 25 | Cc1cc(Oc2ccccc2F)ccc1-n1ncc(C(=O)c2cc3cc(OC(F)F)c(NS(=O)(=O)CCCF)cc3[nH]2)c1N [Example 4-24-003, N-[2-[5-amino-1-[4-(2-fluorophenoxy)-2-methylphenyl]pyrazole-4-carbonyl]-5-(difluoromethoxy)-1H-indol-6-yl]-3-fluoropropane-1-sulfonamide]
3.1 | 41 | 17 | Cc1cc(Oc2ccccc2F)ccc1-n1ncc(C(=O)c2cc3cc(OC(F)F)c(NS(=O)(=O)CCC(F)F)cc3[nH]2)c1N [Example 4-24-004, N-[2-[5-amino-1-[4-(2-fluorophenoxy)-2-methylphenyl]pyrazole-4-carbonyl]-5-(difluoromethoxy)-1H-indol-6-yl]-3,3-difluoropropane-1-sulfonamide]
4.7 | 240 | 47 | Cc1cc(Oc2ccccc2F)cc(F)c1-n1ncc(C(=O)c2cc3cc(OC(F)F)c(NS(=O)(=O)C4CC4)cc3[nH]2)c1N [Example 4-24-005, N-[2-[5-amino-1-[2-fluoro-4-(2-fluorophenoxy)-6-methylphenyl]pyrazole-4-carbonyl]-5-(difluoromethoxy)-1H-indol-6-yl]cyclopropanesulfonamide]
4.5 | 200 | 51 | Cc1cc(Oc2ccccc2F)cc(F)c1-n1ncc(C(=O)c2cc3cc(OC(F)F)c(NS(=O)(=O)CCCF)cc3[nH]2)c1N [Example 4-24-006, N-[2-[5-amino-1-[2-fluoro-4-(2-fluorophenoxy)-6-methylphenyl]pyrazole-4-carbonyl]-5-(difluoromethoxy)-1H-indol-6-yl]-3-fluoropropane-1-sulfonamide]
4 | 230 | 61 | Cc1cc(Oc2ccccc2F)ncc1-n1ncc(C(=O)c2cc3cc(OC(F)F)c(NS(=O)(=O)C4CC4)cc3[nH]2)c1N [Example 4-24-007, N-[2-[5-amino-1-[6-(2-fluorophenoxy)-4-methylpyridin-3-yl]pyrazole-4-carbonyl]-5-(difluoromethoxy)-1H-indol-6-yl]cyclopropanesulfonamide]
2.1 | 99 | 19 | Cc1cc(Oc2ccccc2F)ncc1-n1ncc(C(=O)c2cc3cc(OC(F)F)c(NS(C)(=O)=O)cc3[nH]2)c1N [Example 4-24-008, N-[2-[5-amino-1-[6-(2-fluorophenoxy)-4-methylpyridin-3-yl]pyrazole-4-carbonyl]-5-(difluoromethoxy)-1H-indol-6-yl]methanesulfonamide]
3.6 | 120 | 39 | Cc1cc(Oc2ccccc2F)ncc1-n1ncc(C(=O)c2cc3cc(OC(F)F)c(NS(=O)(=O)CCCF)cc3[nH]2)c1N [Example 4-24-009, N-[2-[5-amino-1-[6-(2-fluorophenoxy)-4-methylpyridin-3-yl]pyrazole-4-carbonyl]-5-(difluoromethoxy)-1H-indol-6-yl]-3-fluoropropane-1-sulfonamide]
4.3 | 150 | 36 | Cc1cc(Oc2c(F)cccc2F)ncc1-n1ncc(C(=O)c2cc3cc(OC(F)F)c(NS(=O)(=O)C4CC4)cc3[nH]2)c1N [Example 4-24-010, N-[2-[5-amino-1-[6-(2,6-difluorophenoxy)-4-methylpyridin-3-yl]pyrazole-4-carbonyl]-5-(difluoromethoxy)-1H-indol-6-yl]cyclopropanesulfonamide]
2.3 | 64 | 13 | Cc1cc(Oc2c(F)cccc2F)ncc1-n1ncc(C(=O)c2cc3cc(OC(F)F)c(NS(C)(=O)=O)cc3[nH]2)c1N [Example 4-24-011, N-[2-[5-amino-1-[6-(2,6-difluorophenoxy)-4-methylpyridin-3-yl]pyrazole-4-carbonyl]-5-(difluoromethoxy)-1H-indol-6-yl]methanesulfonamide]
4 | 100 | 28 | Cc1cc(Oc2c(F)cccc2F)ncc1-n1ncc(C(=O)c2cc3cc(OC(F)F)c(NS(=O)(=O)CCCF)cc3[nH]2)c1N [Example 4-24-012, N-[2-[5-amino-1-[6-(2,6-difluorophenoxy)-4-methylpyridin-3-yl]pyrazole-4-carbonyl]-5-(difluoromethoxy)-1H-indol-6-yl]-3-fluoropropane-1-sulfonamide]
1.6 | 40 | 12 | Cc1cc(Oc2ccccc2F)ccc1-n1ncc(C(=O)c2cc3cc(N4CCOCC4)c(NS(C)(=O)=O)cc3[nH]2)c1N [Example 4-24-013, N-[2-[5-amino-1-[4-(2-fluorophenoxy)-2-methylphenyl]pyrazole-4-carbonyl]-5-morpholin-4-yl-1H-indol-6-yl]methanesulfonamide]
6.6 | 360 | 97 | Cc1cc(Oc2ccccc2F)ncc1-n1ncc(C(=O)c2cc3cc(N4CCOCC4)c(NS(=O)(=O)C4CC4)cc3[nH]2)c1N [Example 4-24-014, N-[2-[5-amino-1-[6-(2-fluorophenoxy)-4-methylpyridin-3-yl]pyrazole-4-carbonyl]-5-morpholin-4-yl-1H-indol-6-yl]cyclopropanesulfonamide]
1.3 | 77 | 16 | Cc1cc(Oc2ccccc2F)ncc1-n1ncc(C(=O)c2cc3cc(N4CCOCC4)c(NS(C)(=O)=O)cc3[nH]2)c1N [Example 4-24-015, N-[2-[5-amino-1-[6-(2-fluorophenoxy)-4-methylpyridin-3-yl]pyrazole-4-carbonyl]-5-morpholin-4-yl-1H-indol-6-yl]methanesulfonamide]
0.87 | 78 | 32 | Cc1cc(Oc2ccccc2F)ncc1-n1ncc(C(=O)c2cc3cc(N4CCOCC4)c(NS(=O)(=O)CCCF)cc3[nH]2)c1N [Example 4-24-016, N-[2-[5-amino-1-[6-(2-fluorophenoxy)-4-methylpyridin-3-yl]pyrazole-4-carbonyl]-5-morpholin-4-yl-1H-indol-6-yl]-3-fluoropropane-1-sulfonamide]
4.1 | 170 | 65 | Cc1cc(Oc2c(F)cccc2F)ncc1-n1ncc(C(=O)c2cc3cc(N4CCOCC4)c(NS(=O)(=O)C4CC4)cc3[nH]2)c1N [Example 4-24-017, N-[2-[5-amino-1-[6-(2,6-difluorophenoxy)-4-methylpyridin-3-yl]pyrazole-4-carbonyl]-5-morpholin-4-yl-1H-indol-6-yl]cyclopropanesulfonamide]
2.6 | 91 | 27 | Cc1cc(Oc2c(F)cccc2F)ncc1-n1ncc(C(=O)c2cc3cc(N4CCOCC4)c(NS(C)(=O)=O)cc3[nH]2)c1N [Example 4-24-018, N-[2-[5-amino-1-[6-(2,6-difluorophenoxy)-4-methylpyridin-3-yl]pyrazole-4-carbonyl]-5-morpholin-4-yl-1H-indol-6-yl]methanesulfonamide]
3.9 | 140 | 62 | Cc1cc(Oc2c(F)cccc2F)ncc1-n1ncc(C(=O)c2cc3cc(N4CCOCC4)c(NS(=O)(=O)CCCF)cc3[nH]2)c1N [Example 4-24-019, N-[2-[5-amino-1-[6-(2,6-difluorophenoxy)-4-methylpyridin-3-yl]pyrazole-4-carbonyl]-5-morpholin-4-yl-1H-indol-6-yl]-3-fluoropropane-1-sulfonamide]
3.1 | 54 | 22 | Cc1cc(Oc2ccccc2F)ccc1-n1ncc(C(=O)c2cc3cc(OCC(F)F)c(NS(=O)(=O)C4CC4)cc3[nH]2)c1N [Example 4-24-020, N-[2-[5-amino-1-[4-(2-fluorophenoxy)-2-methylphenyl]pyrazole-4-carbonyl]-5-(2,2-difluoroethoxy)-1H-indol-6-yl]cyclopropanesulfonamide]
